In patent publication US9115176B2, “Compounds, use thereof in cosmetic and cosmeceutic applications, and compositions comprising same” (Lucas Meyer Cosmetics Canada Inc., priority 2007, dated 2015):
* marks the point of attachment. Hexanoyl = CCCCCC(=O)*

Experiments:
[1] = tested on: Normal human dermal fibroblasts; test: Neosynthesis of laminin in normal human dermal fibroblasts (E.I.A. kit, normalised to Bradford protein); assay type: cell-based; conditions: for Laminins (ng/μg proteins) % increase: 48 hours incubation, untreated control = 100.0%
Method: Normal human dermal fibroblasts were incubated for 48 hours in absence or presence of Transforming Growth Factor (TGF)-β at 50 ng/ml or of peptide I at two concentrations, namely 10^−6M and 10^−7M. At the end of the incubation period, laminins were quantified with the E.I.A. Enzyme Immuno Assay kit. Proteins contained in the cell lysate were also quantified by spectrocolorimetry according to the Bradford method. TGF-β and peptide I were tested in dose-response on the fibroblasts.
The data presented in Table I below represent the relative increase in laminin synthesis in a human dermal fibroblast culture medium in monolayers in the presence of peptide I, or TGF-β, as compared to untreated cells (control).

laminin-5 = test: Synthesis of laminin-5 in human skin fragments treated with dermal corticosteroid (immunohistochemistry, semi-quantitative score); assay type: cell-based
Method: Fragments of normal human skin were treated or not in the presence of a dermal corticosteroid at 0.05% w/v or peptide I at a concentration of 10^−7M. The skin samples were then frozen at day 3 for an immunohistochemical analysis of laminin-5. The immunodetection was performed with a 3 coats indirect immunoperoxidase method (BC Peroxidase kit, Vector laboratories) using a primary antibody specific to laminin-5.

collagen VII = test: Synthesis of collagen VII in human skin fragments treated with dermal corticosteroid (immunohistochemistry, semi-quantitative score); assay type: cell-based
Method: Fragments of normal human skin were treated or not in the presence of a dermal corticosteroid at 0.05% w/v and peptide I at a concentration of 10^−7M. Dermal corticosteroid are known to alter cell metabolism. The skin samples were then frozen at day 3 for an immunohistochemical analysis of collagen VII. The immunodetection was performed with a 3 coats indirect immunoperoxidase method (ABC Peroxidase kit, Vector laboratories) using a primary antibody specific to collagen VII.

crow's feet = test: In vivo anti-wrinkle activity on crow's feet (photographs, silicone replicas, fringe projection); parameters: species or system human; conditions: 5 ppm in Table VI formulation, topical twice daily, after 28 and 56 days, versus placebo
Method: Peptide I was tested in the formulation described in Table VI below versus its placebo on 30 subjects (+10%) selected according to the inclusion/non inclusion criteria. [table] The study lasted 56 days following the first application. Volunteers applied the product twice daily on a randomised crow's foot of the temple. The study was a simple blind test, comparing the results obtained at one treated area following application of the composition comprising peptide I with those obtained at another treated area with the placebo. The evaluation of the efficacy of the formulation comprising peptide I was performed using: (a) illustrative digital photographs of the crow's feet; and (b) Silicone rubber replicas of the crow's feet (analysis of the wrinkles and of the skin network by fringe projection). In vitro fringe projection—Topometry—Wrinkles. […] All the silicone rubber replicas were analysed by fringe projection to observe the cutaneous relief. The following parameters were measured: (a) SPa: Average roughness; (b) SPq: Average dispersal of the variations of the relief; (c) SPt: Maximum amplitude of the relief and (d) SDev: Developed Surface. […] All the replicas were analysed by fringe projection to observe the skin network analysis. The following parameters were measured: (a) SRa: Average roughness (mm); and (b) SRq: Average with regards to the average quadratic (mm).

[2] = skin + corticosteroids 0.05% w/v + peptide I 10^−7M, day 3

Substance	Laminins (ng/μg proteins) % increase ([1]; 50 ng/ml) [%]	Laminins (ng/μg proteins) % increase ([1]; 10^−6M) [%]	Laminins (ng/μg proteins) % increase ([1]; 10^−7M) [%]	Effect on laminin synthesis in human dermal fibroblast cells (in words) ([1]; summary of Table I)	Laminin-5 score, relative change (laminin-5; [2])	Laminin-5 labelling score (laminin-5; skin + corticosteroids 0.05% w/v + peptide I 10^−7M, day 3, control skin 2.1 ± 1.3)	Effect on synthesis of laminin-5 in a human skin model (in words) (laminin-5; summary of Table V)	Collagen VII score, relative change (collagen VII; [2])	Collagen VII labelling score (collagen VII; skin + corticosteroids 0.05% w/v + peptide I 10^−7M, day 3, control skin 1.9 ± 0.8)	Effect on synthesis of collagen VII in a human skin model (in words) (collagen VII; summary of Table III)	Crow's feet skin network roughness (in words) (crow's feet)	Reduction of the wrinkles (crow's feet roughness, in words) (crow's feet)
TGF-β [reference compound]	109.9											
CH3—(CH2)4—CO-Lys-Gly-His-Lys-NH2 (Hexanoyl-KGHK-NH2; SMILES CCCCCC(=O)N[C@@H](CCCCN)C(=O)NCC(=O)N[C@@H](Cc1c[nH]cn1)C(=O)N[C@@H](CCCCN)C(N)=O) [Peptide I]		125.8	125.9	increases laminin synthesis	+49%	2.2 ± 0.8	increases the synthesis of laminin-5	+34%	2.25 ± 0.2	increases the synthesis of collagen VII	reduction of the crow's feet skin network roughness	potent efficacy
